Active and inactive are the calls of the source.
Key:
Vero [1] = test: mammalian cell viability reduction – secondary assay, cytotoxicity control for West Nile virus antiviral project, dose response (AID 1650); assay type: functional; settings: Chlorocebus sabaeus
[2] = target: T1, Type-1 angiotensin II receptor (Homo sapiens, UniProt P30556); test: agonist activity at AGTR1 – cell-based, uHTS hits, selectivity assay for APJ receptor agonist project, dose response (AID 488865); assay type: functional;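 note: beta-arrestin recruitment to AT1 measured by enzyme fragment complementation luminescence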
T1 sequence (P30556 whole entry): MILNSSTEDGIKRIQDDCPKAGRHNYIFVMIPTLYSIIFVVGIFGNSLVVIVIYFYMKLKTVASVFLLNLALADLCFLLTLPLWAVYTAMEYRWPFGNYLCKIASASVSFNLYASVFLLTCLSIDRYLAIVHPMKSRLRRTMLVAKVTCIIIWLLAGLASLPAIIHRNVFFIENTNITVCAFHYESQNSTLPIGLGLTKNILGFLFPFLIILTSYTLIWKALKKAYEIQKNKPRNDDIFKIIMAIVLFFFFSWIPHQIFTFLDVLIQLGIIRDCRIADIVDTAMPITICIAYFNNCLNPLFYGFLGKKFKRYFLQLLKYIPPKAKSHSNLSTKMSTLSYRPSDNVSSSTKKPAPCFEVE

[3] = M. tuberculosis H37Rv growth inhibitors, H37Rv strain (AID 1626); assay type: functional
[4] = M. tuberculosis growth inhibition, HTS (AID 449762); assay type: functional
[5] = Luminescent dose response cell-based high throughput screening assay for inhibitors of the Janus kinase 2 mutant JAK2V617F. [Related pubchem assays: 1446 (Primary screen.), 1521 (Confirmation assay.), 1486 (Counter screen.)]; assay type: functional
[6] = target: T2, RNA-binding protein pos-1 (Caenorhabditis elegans, UniProt G5EF15); test: disruptors of C. elegans POS-1 RNA interaction – biochemical, fluorescence polarization, dose response (AID 1964);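 note: purified POS-1 fused to maltose binding protein made in E. coli; potency of compounds blocking POS-1 binding to fluorescent RNA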
T2 sequence (G5EF15 whole entry): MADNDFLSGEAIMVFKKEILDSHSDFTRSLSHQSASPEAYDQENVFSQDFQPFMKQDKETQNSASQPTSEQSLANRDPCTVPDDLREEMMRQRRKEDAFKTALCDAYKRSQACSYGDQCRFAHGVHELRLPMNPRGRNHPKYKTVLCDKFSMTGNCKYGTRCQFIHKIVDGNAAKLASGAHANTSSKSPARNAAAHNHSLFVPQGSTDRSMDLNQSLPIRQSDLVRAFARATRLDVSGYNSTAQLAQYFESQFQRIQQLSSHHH

[7] = target: T3, Zinc finger protein mex-5 (Caenorhabditis elegans, UniProt Q9XUB2); test: potency of MEX-5 RNA-binding blockers – biochemical, C. elegans, fluorescence polarization, dose response (AID 1960)
T3 sequence (Q9XUB2 whole entry): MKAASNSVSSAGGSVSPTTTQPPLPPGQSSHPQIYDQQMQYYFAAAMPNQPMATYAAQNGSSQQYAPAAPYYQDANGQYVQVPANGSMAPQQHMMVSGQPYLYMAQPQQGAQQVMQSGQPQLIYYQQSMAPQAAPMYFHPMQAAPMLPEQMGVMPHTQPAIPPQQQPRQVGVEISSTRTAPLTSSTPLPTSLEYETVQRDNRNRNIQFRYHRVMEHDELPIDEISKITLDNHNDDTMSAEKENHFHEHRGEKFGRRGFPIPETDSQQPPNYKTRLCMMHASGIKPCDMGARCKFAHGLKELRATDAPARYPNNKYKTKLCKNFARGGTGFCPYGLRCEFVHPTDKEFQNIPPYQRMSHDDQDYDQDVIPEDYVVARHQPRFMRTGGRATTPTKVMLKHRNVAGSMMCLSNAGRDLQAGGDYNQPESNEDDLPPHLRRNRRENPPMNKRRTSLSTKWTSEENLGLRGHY

[8] = target: Heat shock protein HSP 90-alpha (Homo sapiens, UniProt P07900); test: Luminescence-based dose response biochemical high throughput screening assay for inhibitors of the Heat Shock Protein 90 (HSP90). [Related pubchem assays: 1831 (Summary AID.), 1846 (Confirmation screen.), 1789 (Primary screen.)]
[9] = target: E3 ubiquitin-protein ligase Mdm2 (Homo sapiens, UniProt Q00987); test: MDM2-luc reporter signal enhancers, multi-concentration potency testing, MDM2 ubiquitin-protein ligase inhibitor program, whole-cell format, luminescence detection, 384-well microplate (AID 1394); assay type: functional;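 note: MDM2 E3 inhibitors raise luminescence so EC50 is for signal enhancement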
Genome polyprotein [10] = target: Genome polyprotein (Hepatitis C virus, UniProt Q2Q167); test: disruption of hepatitis C core self-association – biochemical, TR-FRET, dose response (AID 2159); design: species or system Hepacivirus hominis;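 note: blocks dimerization of HCV core protein measured by TR-FRET between tagged core106 pairs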
Aspartyl aminopeptidase = Aspartyl aminopeptidase (Plasmodium falciparum 3D7, UniProt Q8I2J3); test: Counterscreen for inhibitors of M1 and M17 aminopeptidases: QFRET-based biochemical high throughput dose response assay for inhibitors of the Plasmodium falciparum M18 Aspartyl Aminopeptidase (PFM18AAP). [Related PubChem assays: 1619 (Screening assay (M17LAP inhibitors).), 1445 (Screening assay (M1AAP inhibitors).)]
[11] = target: T4, Probable nicotinate-nucleotide adenylyltransferase (Staphylococcus aureus (strain N315), UniProt P65502); assay type: functional, Staphylococcus aureus subsp. aureus N315;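 for IC50 Mean: confirmatory dose-response retesting of NadD inhibitor hits first found in an ultra-high-throughput screen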
[12] = target: T4, Probable nicotinate-nucleotide adenylyltransferase; assay type: functional, Staphylococcus aureus subsp. aureus N315; settings: read-out: IC50_Mean
Procathepsin L = Procathepsin L (Homo sapiens, UniProt P07711); test: CTSL1 protease inhibition – biochemical, QFRET, 1536-well, counter-screen for M1/M17 aminopeptidase inhibitor project, dose response (AID 2214)
Leucine aminopeptidase = target: T5, Leucine aminopeptidase (Plasmodium falciparum 3D7, UniProt Q8IL11); test: P. falciparum M17LAP inhibitors, primary screen, biochemical, fluorogenic H-Leu-NHMec substrate, 1536-well (AID 1619); assay type: functional
T5 sequence (Q8IL11 whole entry): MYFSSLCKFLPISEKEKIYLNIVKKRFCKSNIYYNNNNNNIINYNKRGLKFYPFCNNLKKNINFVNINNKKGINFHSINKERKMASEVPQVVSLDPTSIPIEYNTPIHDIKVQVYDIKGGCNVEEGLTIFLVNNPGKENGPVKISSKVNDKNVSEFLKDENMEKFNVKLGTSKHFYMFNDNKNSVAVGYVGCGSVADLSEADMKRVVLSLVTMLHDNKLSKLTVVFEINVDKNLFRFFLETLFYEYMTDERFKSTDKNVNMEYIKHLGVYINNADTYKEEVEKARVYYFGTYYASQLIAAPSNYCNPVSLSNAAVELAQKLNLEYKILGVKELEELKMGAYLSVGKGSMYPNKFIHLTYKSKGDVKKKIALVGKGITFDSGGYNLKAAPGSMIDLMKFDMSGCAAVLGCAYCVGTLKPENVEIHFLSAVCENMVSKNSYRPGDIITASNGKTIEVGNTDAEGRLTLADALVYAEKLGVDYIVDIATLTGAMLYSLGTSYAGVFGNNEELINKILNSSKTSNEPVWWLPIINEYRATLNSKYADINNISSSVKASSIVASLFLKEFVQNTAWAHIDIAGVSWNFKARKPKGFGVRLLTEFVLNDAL

NADPH oxidase 1 [13] = target: T6, NADPH oxidase 1 (Homo sapiens, UniProt Q9Y5S8); test: Late-stage luminescence-based cell-based dose response assay to identify inhibitors of NADPH oxidase 1 (NOX1): Purchased analogs 2.; assay type: functional
Vero [14] = test: viability of Vero cells under compound – cytotoxicity control for flavivirus capping enzyme inhibitors (AID 588742); assay type: functional; settings: Chlorocebus sabaeus
[15] = target: T7, Histone-lysine N-methyltransferase NSD2 (Homo sapiens, UniProt O96028); assay type: biochemical
T7 sequence (O96028 whole entry): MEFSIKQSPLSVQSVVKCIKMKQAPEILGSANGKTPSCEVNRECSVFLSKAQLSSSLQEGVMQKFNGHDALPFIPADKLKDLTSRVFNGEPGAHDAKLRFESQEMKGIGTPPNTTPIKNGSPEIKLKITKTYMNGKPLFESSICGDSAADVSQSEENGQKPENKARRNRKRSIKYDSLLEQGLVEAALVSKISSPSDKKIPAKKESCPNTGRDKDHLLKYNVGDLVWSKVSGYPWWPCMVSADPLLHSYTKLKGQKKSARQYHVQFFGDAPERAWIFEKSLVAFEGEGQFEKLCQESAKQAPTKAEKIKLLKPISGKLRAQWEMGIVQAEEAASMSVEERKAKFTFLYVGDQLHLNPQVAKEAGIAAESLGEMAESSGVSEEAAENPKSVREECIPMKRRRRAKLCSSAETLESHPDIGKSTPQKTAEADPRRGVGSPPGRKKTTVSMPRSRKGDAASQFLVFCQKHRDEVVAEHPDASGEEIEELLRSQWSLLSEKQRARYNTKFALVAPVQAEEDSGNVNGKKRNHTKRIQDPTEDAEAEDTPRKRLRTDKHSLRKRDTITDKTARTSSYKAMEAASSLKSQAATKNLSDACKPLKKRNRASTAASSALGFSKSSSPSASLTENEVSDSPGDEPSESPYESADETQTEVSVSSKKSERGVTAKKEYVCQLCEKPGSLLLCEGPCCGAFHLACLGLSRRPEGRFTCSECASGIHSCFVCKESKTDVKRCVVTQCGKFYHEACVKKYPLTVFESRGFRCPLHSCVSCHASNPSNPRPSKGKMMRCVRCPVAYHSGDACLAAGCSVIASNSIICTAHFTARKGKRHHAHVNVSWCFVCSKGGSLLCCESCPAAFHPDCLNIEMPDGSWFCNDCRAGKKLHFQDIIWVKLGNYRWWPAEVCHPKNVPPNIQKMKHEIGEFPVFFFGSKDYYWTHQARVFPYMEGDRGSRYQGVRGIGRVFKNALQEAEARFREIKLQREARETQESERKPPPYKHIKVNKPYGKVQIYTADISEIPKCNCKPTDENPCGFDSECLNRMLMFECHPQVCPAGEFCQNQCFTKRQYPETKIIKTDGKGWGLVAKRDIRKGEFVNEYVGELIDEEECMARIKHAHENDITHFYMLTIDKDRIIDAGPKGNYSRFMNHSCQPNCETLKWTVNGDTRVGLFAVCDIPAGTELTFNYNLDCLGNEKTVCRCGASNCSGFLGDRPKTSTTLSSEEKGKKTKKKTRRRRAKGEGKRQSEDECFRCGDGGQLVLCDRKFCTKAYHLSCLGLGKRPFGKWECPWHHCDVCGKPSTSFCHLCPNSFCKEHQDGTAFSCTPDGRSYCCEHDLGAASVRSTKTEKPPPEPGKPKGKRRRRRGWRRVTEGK

Nonstructural protein 1 = Nonstructural protein 1 (Influenza A virus, UniProt Q194T2); assay type: functional, Influenza A virus (A/California/07/2009(H1N1))
Genome polyprotein [16] = target: Genome polyprotein (dengue virus type 2, UniProt P29990); test: flavivirus cap methylation enzyme inhibition – biochemical, confirmation dose response, primary screen (AID 588689); assay type: functional
[17] = target: Eukaryotic translation initiation factor 4E (Mus musculus, UniProt P63073); test: blockers of eIF4G binding by eIF4E – biochemical, TR-FRET, dose response (AID 855); assay type: functional;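 note: potency for disrupting eIF4E binding to eIF4GI seen as loss of FRET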
[18] = RAM pathway signaling blockade in S. cerevisiae – dose response (AID 1307); assay type: functional
NADPH oxidase 1 [19] = target: T6, NADPH oxidase 1; assay type: functional, cell-based

T4 sequence (P65502 whole entry): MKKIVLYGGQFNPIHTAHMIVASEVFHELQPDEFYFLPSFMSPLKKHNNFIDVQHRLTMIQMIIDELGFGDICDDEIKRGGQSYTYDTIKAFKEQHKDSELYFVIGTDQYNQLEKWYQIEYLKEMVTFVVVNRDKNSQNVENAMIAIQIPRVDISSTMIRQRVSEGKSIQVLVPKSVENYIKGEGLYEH
T6 sequence (Q9Y5S8 whole entry): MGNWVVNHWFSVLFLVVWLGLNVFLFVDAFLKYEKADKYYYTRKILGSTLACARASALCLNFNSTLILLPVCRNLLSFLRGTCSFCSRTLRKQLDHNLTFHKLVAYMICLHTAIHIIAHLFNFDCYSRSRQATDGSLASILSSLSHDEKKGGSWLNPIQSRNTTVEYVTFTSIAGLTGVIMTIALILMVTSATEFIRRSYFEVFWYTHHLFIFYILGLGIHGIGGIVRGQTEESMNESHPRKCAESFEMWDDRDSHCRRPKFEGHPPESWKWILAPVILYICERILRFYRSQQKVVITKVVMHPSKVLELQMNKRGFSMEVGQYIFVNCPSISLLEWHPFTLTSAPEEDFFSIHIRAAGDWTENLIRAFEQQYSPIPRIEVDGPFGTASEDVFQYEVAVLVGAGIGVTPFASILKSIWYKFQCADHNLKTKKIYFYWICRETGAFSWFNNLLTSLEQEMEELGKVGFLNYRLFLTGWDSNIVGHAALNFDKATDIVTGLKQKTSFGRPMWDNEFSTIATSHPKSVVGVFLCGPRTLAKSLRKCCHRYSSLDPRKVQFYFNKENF
E3 ubiquitin-protein ligase Mdm2, sequence (Q00987 whole entry): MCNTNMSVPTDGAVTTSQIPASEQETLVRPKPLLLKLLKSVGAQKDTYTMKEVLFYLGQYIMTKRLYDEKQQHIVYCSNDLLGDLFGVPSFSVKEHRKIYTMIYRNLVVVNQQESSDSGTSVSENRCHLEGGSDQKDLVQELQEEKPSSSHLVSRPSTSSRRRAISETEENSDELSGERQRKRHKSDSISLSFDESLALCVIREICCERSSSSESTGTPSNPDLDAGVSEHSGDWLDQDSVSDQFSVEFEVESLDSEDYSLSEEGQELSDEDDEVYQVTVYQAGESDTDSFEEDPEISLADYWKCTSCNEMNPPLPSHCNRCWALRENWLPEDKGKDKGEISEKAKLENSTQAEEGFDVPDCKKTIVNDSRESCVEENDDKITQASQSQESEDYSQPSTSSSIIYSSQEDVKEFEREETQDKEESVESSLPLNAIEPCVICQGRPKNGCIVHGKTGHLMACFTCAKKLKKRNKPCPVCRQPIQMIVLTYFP
Eukaryotic translation initiation factor 4E, sequence (P63073 whole entry): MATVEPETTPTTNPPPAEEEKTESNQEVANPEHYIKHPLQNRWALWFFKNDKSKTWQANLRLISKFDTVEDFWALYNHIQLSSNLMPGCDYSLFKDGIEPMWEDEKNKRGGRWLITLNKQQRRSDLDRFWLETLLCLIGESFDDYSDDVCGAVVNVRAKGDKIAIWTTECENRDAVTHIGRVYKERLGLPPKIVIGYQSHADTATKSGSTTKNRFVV
Nonstructural protein 1, sequence (Q194T2 whole entry): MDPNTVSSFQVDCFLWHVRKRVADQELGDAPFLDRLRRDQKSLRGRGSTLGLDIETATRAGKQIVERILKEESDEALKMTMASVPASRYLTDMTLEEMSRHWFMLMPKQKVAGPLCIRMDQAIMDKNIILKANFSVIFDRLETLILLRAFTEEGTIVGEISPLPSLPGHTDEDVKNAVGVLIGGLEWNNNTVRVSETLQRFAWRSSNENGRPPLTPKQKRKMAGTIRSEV
Genome polyprotein (Hepatitis C virus, UniProt Q2Q167), sequence (Q2Q167 whole entry): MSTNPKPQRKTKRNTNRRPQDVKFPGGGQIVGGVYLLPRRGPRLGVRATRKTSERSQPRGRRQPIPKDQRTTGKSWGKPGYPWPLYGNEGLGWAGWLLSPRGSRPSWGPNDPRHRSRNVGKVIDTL
Genome polyprotein (dengue virus type 2, UniProt P29990), sequence (P29990 2492-3391 limits assumed): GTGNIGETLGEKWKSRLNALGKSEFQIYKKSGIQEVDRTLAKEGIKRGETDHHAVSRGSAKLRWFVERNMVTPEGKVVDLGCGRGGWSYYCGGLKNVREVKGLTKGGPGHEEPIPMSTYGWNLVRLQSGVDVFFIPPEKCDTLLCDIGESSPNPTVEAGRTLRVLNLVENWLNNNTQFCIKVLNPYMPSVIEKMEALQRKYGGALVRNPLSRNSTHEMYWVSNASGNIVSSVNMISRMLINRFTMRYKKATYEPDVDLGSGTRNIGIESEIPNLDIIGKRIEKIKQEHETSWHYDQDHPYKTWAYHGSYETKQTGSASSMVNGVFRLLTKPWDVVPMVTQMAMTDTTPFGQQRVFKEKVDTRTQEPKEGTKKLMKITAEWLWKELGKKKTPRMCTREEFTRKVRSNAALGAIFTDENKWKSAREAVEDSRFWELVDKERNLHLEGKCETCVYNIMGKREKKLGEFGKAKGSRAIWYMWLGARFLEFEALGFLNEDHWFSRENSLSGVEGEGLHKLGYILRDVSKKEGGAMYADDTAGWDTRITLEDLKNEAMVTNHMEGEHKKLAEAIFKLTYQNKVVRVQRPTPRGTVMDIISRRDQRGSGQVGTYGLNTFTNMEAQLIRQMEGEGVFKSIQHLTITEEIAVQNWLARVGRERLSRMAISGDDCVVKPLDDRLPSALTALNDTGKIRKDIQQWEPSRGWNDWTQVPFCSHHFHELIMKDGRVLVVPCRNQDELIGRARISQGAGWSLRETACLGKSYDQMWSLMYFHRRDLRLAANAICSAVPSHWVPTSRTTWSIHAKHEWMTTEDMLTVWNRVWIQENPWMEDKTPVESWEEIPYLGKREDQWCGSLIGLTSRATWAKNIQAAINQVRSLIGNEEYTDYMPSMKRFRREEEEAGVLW
Aspartyl aminopeptidase, sequence (Q8I2J3 whole entry): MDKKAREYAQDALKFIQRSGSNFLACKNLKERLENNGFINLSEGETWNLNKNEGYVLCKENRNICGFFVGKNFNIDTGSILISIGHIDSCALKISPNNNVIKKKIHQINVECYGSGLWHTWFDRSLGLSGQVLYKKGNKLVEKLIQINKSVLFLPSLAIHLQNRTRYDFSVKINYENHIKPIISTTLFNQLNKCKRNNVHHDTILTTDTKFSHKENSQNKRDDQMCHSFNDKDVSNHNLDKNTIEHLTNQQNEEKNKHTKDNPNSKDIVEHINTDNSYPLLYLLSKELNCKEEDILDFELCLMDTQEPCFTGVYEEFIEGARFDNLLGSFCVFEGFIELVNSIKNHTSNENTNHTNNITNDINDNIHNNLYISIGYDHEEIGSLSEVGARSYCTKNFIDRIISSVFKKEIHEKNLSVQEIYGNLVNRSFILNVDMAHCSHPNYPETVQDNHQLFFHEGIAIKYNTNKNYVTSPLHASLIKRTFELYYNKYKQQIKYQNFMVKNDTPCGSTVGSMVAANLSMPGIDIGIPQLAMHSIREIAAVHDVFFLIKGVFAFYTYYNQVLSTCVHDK
Procathepsin L, sequence (P07711 whole entry): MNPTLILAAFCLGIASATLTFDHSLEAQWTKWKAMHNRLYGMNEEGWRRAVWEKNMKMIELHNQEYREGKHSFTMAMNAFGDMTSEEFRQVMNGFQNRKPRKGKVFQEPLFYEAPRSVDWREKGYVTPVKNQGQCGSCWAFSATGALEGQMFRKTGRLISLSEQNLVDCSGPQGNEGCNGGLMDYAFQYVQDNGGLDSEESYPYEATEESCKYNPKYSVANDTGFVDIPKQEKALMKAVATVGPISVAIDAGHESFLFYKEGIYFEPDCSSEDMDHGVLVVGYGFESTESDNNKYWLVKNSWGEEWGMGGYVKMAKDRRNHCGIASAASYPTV

With `CCOC(=O)N1CCN(S(=O)(=O)c2ccc(C(=O)N(CCCN(C)C)c3nc4ccc(Cl)cc4s3)cc2)CC1` the CC50 (Vero [1]) was 10.1 µM (active) and the EC50 [2] was > 100 µM (inactive).

For `CCOC(=O)N1CCN=C1SCc1ccc(C(F)(F)F)cc1`, the IC50 [3] was > 100 µM (active) and the IC50 [4] was > 100 µM (active).

In the case of `O=c1oc2ccc(Cl)cc2nc1/C=C(\O)c1ccco1`, the IC50 [5] is reported as 1.5 µM (active), the EC50 [6] is reported as > 300 µM (not active) and the EC50 [7] is reported as > 300 µM (not active). The IC50 [8] was 2.73 µM (active).

With `CC(=O)c1ccc(OCC(O)Cn2nnc3ccccc32)cc1` (stereo not drawn) the EC50 [9] was 12.7 µM (not active).

In the case of `NS(=O)(=O)c1ccc(NC(=O)c2ccc(S(=O)(=O)N3CCc4ccccc43)cc2)cc1`, the IC50 (Genome polyprotein [10]) is reported as > 49.8 µM (not active).

With `CCn1c2ccccc2c2cc(NC(=O)CSc3nccc(O)n3)ccc21` the IC50 (Aspartyl aminopeptidase) was > 73.5 µM (not active), the IC50 [11] was 15.3 µM (active) and the IC50 [12] was 42.4 µM (active). For the same compound, the IC50 (Procathepsin L) was > 59.6 µM (not active) and the IC50 (Leucine aminopeptidase) was 1.41 µM (active).

For `CC(=O)Nc1ccc(CC(=O)Nc2ccc(Oc3ccc(Br)cc3)cc2)cc1`, the IC50 (NADPH oxidase 1 [13]) was > 17 µM (not active).

For `Cc1cc(C)c(Nc2cc(S(=O)(=O)O)c(N)c3c2C(=O)c2ccccc2C3=O)c(C)c1` [ACID BLUE 129], the CC50 (Vero [14]) was > 40 µM (active), the AC50 [15] was 3.75 µM (active) and the IC50 (Nonstructural protein 1) was 3.96 µM (active). The IC50 (Genome polyprotein [16]) was 21.5 µM (active), the IC50 [17] was 26.1 µM (inactive) and the IC50 [18] was 139 µM (active).

For `C(=N\Nc1ccccc1)/c1ccccc1`, the IC50 (NADPH oxidase 1 [19]) was 13 µM (active).
